Columns and labels:
[1] = tested on: ornithine decarboxylase; experiment: Antiproliferative activity, teleocidin-induced ornithine decarboxylase in epidermis; assay type: in vivo, mice
[2] = tested on: carrageenin-induced oedema of the rat paw; experiment: Carrageenin oedema test; assay type: in vivo; details: 250 mg/kg each, oral
Experimental: To assess the anti-inflammatory effect of the new composition the carrageenin oedema test was used, in which rat paws are injected with carrageenin. The injection of 0.1 mL of 1% carrageenin solution (Sigma Chemical, St. Louis, Mo., USA) in the subplantar area of the rat's right paw induced marked oedema of the paw which reached its maximum intensity 4-5 hours after injection. The oedema was measured by mercury plethysmography at various different time intervals up to the fourth hour after carrageenin injection. Both propionyl L-carnitine (250 mg/kg) and IP6 (250 mg/kg) were administered orally half an hour prior to the subplantar carrageenin injection.

[3] = tested on: collagen-induced type II arthritis; experiment: Collagen-induced arthritis test; assay type: in vivo; details: mice; 200 mg/kg each, oral, from day of collagen injection to end of sixth week; oedema scores 1 to 4
Experimental: Confirmation of the anti-inflammatory effects of the composition according to the invention was obtained using as a test collagen-induced type II arthritis according to the technique described by […]. Exp. Med., 146:857, 1977). In this test, a group of mice were immunised by intradermal injection at the base of the tail of 100 μg of natural collagen emulsified in Freund complete adjuvant (Difco Labs., Detroit, USA). After three weeks, the animals thus treated were again injected intraperitoneally with the same dose of emulsified collagen. The treatment with propionyl […] (200 mg/kg) or with inositol hexaphosphate (200 mg/kg) or with the two compounds in combination was administered orally from the day of collagen injection up to the end of the sixth week. One group of animals received no treatment and served as a control group. The intensity of the oedema was assessed by assigning scores from 1 to 4.

[4] = tested on: platelets from healthy volunteers; experiment: Anti-platelet aggregation activity (collagen-induced, Born method); assay type: cell-based, human; details: collagen 2.5 and 5 ng/mL, 10 min incubation, IP6 4 and 8 ng/mL
Experimental: The anti-platelet-aggregation activity of the composition according to the invention was assessed in blood samples from healthy volunteers. […] The aggregating agent used was collagen (2.5 ng/mL, 5 ng/mL) and the aggregation induced was measured photometrically according to the method described by Born (Born G. V., Nature, 194:927, 1962). […] The doses of propionyl L-carnitine used were 10 ng and 20 ng/mL, while the IP6 doses were 4 ng and 8 ng/mL.

[5] = tested on: atherosclerotic vascular lesions of the abdominal aorta; experiment: Anti-atherosclerotic activity, atherogenic diet; assay type: in vivo, male Wistar rats; details: rats; atherogenic diet six weeks; daily 150 mg/kg propionyl carnitine, 100 mg/kg IP6
Experimental: […] according to the regimen proposed by Melinow (Melinow M. R., Atherosclerosis, 48:105, 1983). At the end of the sixth week of treatment, marked atherosclerotic vascular lesions had formed which were particularly pronounced at the abdominal aorta level. The severity of these lesions was evaluated by a morphometric method, measuring the thickness of the abdominal aorta and the intensity of the staining induced by Sudan IV with a progressive scoring system from 1 to 5. In these tests, the rats received daily administrations of 150 mg/kg of propionyl carnitine and 100 mg/kg of IP6, together with their atherogenic diets.

[6] = tested on: swimming endurance in forced swimming; experiment: Swimming endurance test; assay type: in vivo, mice; details: propionyl L-carnitine 200 mg/kg, IP6 100 mg/kg, oral on the three days preceding the test
Experimental: Since IP6, which is rich in phosphate groups, is a useful energy reserve, a series of tests were performed to establish whether its administration may increase the swimming endurance time in mice submitted to forced swimming in a rectangular tank full of water, according to the technique described by Zheng (Zheng R. L., Acta Pharmacol. Sinica, 14:47, 1993) and whether its effect could be enhanced by using it in combination with a carnitine, such as, for instance, propionyl L-carnitine. The tests were performed on various groups of animals treated with propionyl L-carnitine (200 mg/kg) or with IP6 (100 mg/kg) alone or with the two compounds in combination. The compounds were administered orally on the three days preceding the test. In the animals thus treated, swimming endurance time was measured as compared to control animals.

[7] = tested on: muscle lipoperoxidation (malondialdehyde); experiment: Muscle fatigue test, forced muscular exercise on moving belt, MDA in gastrocnemius muscle; assay type: in vivo, rats; details: propionyl L-carnitine 200 mg/kg, IP6 100 mg/kg, three days before exercise; for MDA content in muscle after 5 min: gastrocnemius muscle 5 min after end of exercise; for MDA content in muscle after 30 min: gastrocnemius muscle 30 min after end of exercise
Experimental: Forced muscular exercise was tested in various groups of rats by making them run on a moving belt at controlled speed and angle of tilt, as described by Li (Li J. X., Acta Pharmacologica Sinica, 20:126, 1999) and Husain (Husain K., Pathophysiology, 4:69, 1997). The animals were made to run on an approximately 5° slope and at a belt speed of 28 m/min. The animals' stamina reached the point of exhaustion after approximately 85 min of exercise. The test was carried out in groups of animals which, during the three days preceding exercise, received 200 mg/kg of propionyl L-carnitine or 100 mg/kg of IP6 alone or in combination. Five and thirty minutes, respectively, after the end of exercise, samples of gastrocnemius muscle were taken from the sacrificed animals and used for measuring the malondialdehyde (MDA) content as a marker for the level of lipoperoxidation by means of reaction with thiobarbituric acid according to the method described by Ohkawa (Ohkawa H., Anal. Biochem., 95:351, 1979).

[8] = tested on: chick cerebral neurons; experiment: Neuronal hypoxia, NaCN-induced, ATP assay; assay type: cell-based; details: propionyl L-carnitine 100 mg/L, IP6 50 mg/L; for ATP after reoxygenation time 0 / ATP after reoxygenation time 30 min: NaCN 1 mmol/L for 120 min; for ATP after reoxygenation time 0: reoxygenation 0; for ATP after reoxygenation time 30 min: reoxygenation 30 min
Experimental: To assess the protective activity of the composition according to the invention on hypoxia-induced damage at the neuronal level, tests were performed on cultures of chick cerebral neurons in which the reduction in cell respiration was induced by introducing NaCN into the cultures. […] The chick cerebral neuron cultures were prepared according to the technique described by […]., Nature, 281:378, 1979). Cytotoxic hypoxia was induced by adding NaCN to the culture medium to a final concentration of 1 mmol/L. After 120 min the medium was replaced by an NaCN-free medium, and the metabolism of the cells was blocked by washing with an iced buffer solution. The ATP assay was performed according to the procedure described by Werner (Werner A. J., Chromatogr. Biomed. Appl., 421:257, 1987).

[9] = rat paw oedema, half an hour before carrageenin
[10] = mouse epidermis 5 h after teleocidin 5 μg/mouse s.c., oral pretreatment propionyl L-carnitine 200 mg/kg, IP6 100 mg/kg

Compound	Ornithine decarboxylase activity ([1]; mouse epidermis 5 h after teleocidin 5 μg/mouse s.c. alone, no pretreatment)	% inhibition after 1 h ([2]; rat paw oedema, half an hour before carrageenin, 1 h) [%]	% inhibition after 2 h [2, 9] [%]	% inhibition after 4 h [2, 9] [%]	inhibitory action on the inflammatory reaction induced by carrageenin (in words) ([2]; rat)	oedema inhibition [3]	aggregating action of collagen, reduced to [4] [%]	protective effect against atherosclerotic lesions (morphometric examination and Sudan IV staining) [5]	Swimming time [6] [min]	mean swimming endurance time versus controls (in words) [6]	MDA content in muscle after 5 min [7]	MDA content in muscle after 30 min [7]	muscle lipoperoxidation in muscle homogenate (in words) [7]	ATP after reoxygenation time 0 [8] [nmol g protein]	ATP after reoxygenation time 30 min [8] [nmol g protein]	ATP levels after anoxia and reoxygenation (in words) ([8]; NaCN 1 mmol/L)	Ornithine decarboxylase activity [1, 10]	reduction of the teleocidin-induced increase in ornithine decarboxylase activity (in words) ([1]; oral pretreatment propionyl L-carnitine 200 mg/kg, IP6 100 mg/kg)	inhibition of the aggregating action of collagen ([4]; propionyl L-carnitine 10 and 20 ng/mL)
teleocidin	2.6 ± 0.4 nMol of CO2/60 min/mg protein																		
O=P(O)(O)O[C@H]1[C@H](OP(=O)(O)O)[C@@H](OP(=O)(O)O)[C@H](OP(=O)(O)O)[C@@H](OP(=O)(O)O)[C@H]1OP(=O)(O)O [IP6, inositol hexaphosphate]		15 ± 1.1	20 ± 2.1	15 ± 0.6	slight inhibitory action	approximately 20%	40	only a slight protective effect	136 ± 16	slightly increased	200 ± 16 nmol/g (WW)	205 ± 8 nmol/g (WW)	capable of reducing the levels of muscle lipoperoxidation	12.4 ± 2.1	16.9 ± 1.9	a lesser reduction of ATP levels is observed as well as more rapid restoration of ATP levels	1.95 ± 0.2 nMol of CO2/60 min/mg protein	significantly reduced	
CCC(=O)OC(CC(=O)[O-])C[N+](C)(C)C [Propionyl L-carnitine, propionyl L-carnitine]			15 ± 0.3	8 ± 0.9		no inhibitory effect			116 ± 19		210 ± 10 nmol/g (WW)	212 ± 14 nmol/g (WW)		11.1 ± 1.6	16.3 ± 2.2		2.1 ± 0.2 nMol of CO2/60 min/mg protein		does not inhibit
